Test results from patent US10233195B2, “Anti-fibrotic pyridinones” (InterMune, Inc., priority 2014, dated 2019).

Test system: TGF-b induced Endothelin-1 production
Assay: ET-1 assay: inhibitory effect on TGF-b induced endothelin-1 production
Assay type: cell-based
Conditions: Homo sapiens, Fibroblast; fibroblasts, stimulant (TGFb, serum, LPA etc), ET-1 in media by ELISA, 4-parameter fit
Procedure: Assay of Inhibitory Effect on TGF-b Induced Endothelin-1 Production
Fibroblasts (primary human lung and dermal, HFL-1, 3T3 etc) are seeded in 96-well plates at ˜15000 cells/well and serum starved for 0-48 hours. After media exchange, compounds serially diluted in DMSO are added to the cells. After a brief incubation of ˜30 min, stimulants (TGFb, serum, LPA etc) are added followed by further incubation for 16-48 hours. Media is then harvested and stored frozen in plate format for later endothelin-1 (ET-1) determination by ELISA. Toxicity measurements are made using the ATPlite kit (Perkin-Elmer). ET-1 is quantified using an ELISA kit (R&D Systems). The amount of ET-1 produced in the assay wells are back-calculated using the ELISA standard. The ability of a compound to inhibit ET-1 production is typically analyzed by fitting dose-response curves to a 4-parameter logistic function to obtain an EC50 value. A measure of cytotoxicity (CC50) is likewise reported from the same experiment using the ATPlite data.
Compounds of some embodiments were prepared according to synthetic methods described herein and assay data obtained for EC50 against ET-1. The assay data obtained is presented in Table 2, in which A=less than 50 μM, B=greater than or equal to 50 μM and less than or equal to 200 μM; and C=greater than 200 μM.

`Cc1n[nH]c(C)c1-c1ccc(=O)n(-c2ccc(Cl)cc2)c1` [Compound 380] and `Cc1n[nH]c(C)c1-c1ccc(=O)n(-c2ccncc2)c1` [Compound 390] cannot be ordered by EC50: > 200 µM for the first, > 200 µM for the second.

`Cc1ccc(=S)n(-c2cccc(F)c2)c1` [Compound 338] and `COc1ccc(-n2cc(C)ccc2=S)cc1` [Compound 332] cannot be ordered by EC50: > 200 µM for the first, > 200 µM for the second.

`CCOc1ccc(-n2cc(-c3cnn(C)c3)c(NCc3cccnc3)cc2=O)c(C)c1` [Compound 701] and `CCOc1ccc(CNc2cc(=O)n(-c3ccc(OCC)cc3C)cc2-c2cnn(C)c2)c(C)c1` [Compound 706] cannot be ordered by EC50: < 50 µM for the first, < 50 µM for the second.

`CCCNC(=O)Nc1cc(=O)n(-c2ccc(OC(F)(F)F)cc2)cc1-c1ccc(F)cc1` [Compound 115] and `Cc1cc(=O)n(-c2ccc(OC(F)(F)F)cc2)cc1-c1ccc(F)cc1` [Compound 213] cannot be ordered by EC50: > 200 µM for the first, > 200 µM for the second.

Compared with `CCOc1ccc(-n2cc(-c3cnn(C)c3)c(OCCOC(C)C)cc2=O)c(C)c1` [Compound 696], `COCCOc1cc(=O)n(-c2ccc(OC(F)(F)F)cc2)cc1-c1cnn(C)c1` [Compound 144] is higher in EC50: 50 to 200 µM for the first, > 200 µM for the second. The first is the more potent here.

First: O=c1c2[nH]nnc2c(-c2cn[nH]c2)cn1-c1ccc(OC(F)(F)F)cc1 [Compound 678]
Second: Cc1cc(=O)n(-c2ccc(OC(F)(F)F)cc2)cc1-c1nn[nH]n1 [Compound 253]
The EC50 of the first is lower: 50 to 200 µM for the first, > 200 µM for the second. The first is the more potent here.

`O=c1cc(NCc2ncccn2)ccn1-c1ccc(OC(F)(F)F)cc1` [Compound 546] and `Cc1cc(=O)n(-c2ccc(OC(F)(F)F)cc2)cc1-c1ccncc1` [Compound 242] cannot be ordered by EC50: > 200 µM for the first, > 200 µM for the second.

`CC(C)n1cc(-c2cn(-c3ccc(OC(F)(F)F)cc3)c(=O)c3c2ncn3C)cn1` [Compound 673] and `Cn1cc(-c2cn(-c3ccc(OC(F)(F)F)cc3)c(=O)c3cc[nH]c23)cn1` [Compound 695] cannot be ordered by EC50: < 50 µM for the first, < 50 µM for the second.

First: Cc1cc(=O)n(-c2ccc(C(F)(F)F)cc2)cc1-c1cnn(C)c1 [Compound 228]
Second: Cc1cc(=O)n(-c2cccc(OC(F)(F)F)c2)cc1-c1cnn(C)c1 [Compound 227]
The EC50 of the first is lower: 50 to 200 µM for the first, > 200 µM for the second. The first is the more potent here.

`O=c1ccc(Br)cn1-c1cccc(C(F)(F)F)c1` [Compound 268] and `O=c1ccc(-c2cn[nH]c2)cn1-c1cccc(C(F)(F)F)c1` [Compound 373] cannot be ordered by EC50: > 200 µM for the first, > 200 µM for the second.

First: Cc1n[nH]c(C)c1-c1ccc(=O)n(-c2cccc(C(F)(F)F)c2)c1 [Compound 384]
Second: O=c1ccc(-c2cccc(Cl)c2)cn1-c1cccc(C(F)(F)F)c1 [Compound 318]
The EC50 of the first is higher: 50 to 200 µM for the first, < 50 µM for the second.

`CCOc1ccc(Oc2cc(=O)n(-c3ccc(OC(F)(F)F)cc3)cc2-c2cnn(C)c2)cc1C` [Compound 154] and `Cn1cc(-c2cn(-c3ccc(OC(F)(F)F)cc3)c(=O)cc2Oc2ccc(Cl)cc2)cn1` [Compound 412] cannot be ordered by EC50: > 200 µM for the first, > 200 µM for the second.

First: CCOc1ccc(-n2cc(-c3ccc(F)cc3)c(Cl)cc2=O)c(C)c1 [Compound 541]
Second: CCOc1ccc(-n2cc(-c3cccc(Cl)c3)ccc2=O)c(C)c1 [Compound 321]
The EC50 of the first is higher: > 200 µM for the first, < 50 µM for the second.

Compared with `COc1ccc(-n2cc(-c3cccc(Cl)c3)ccc2=O)cc1` [Compound 315], `COc1ccc(-c2ccc(=O)n(-c3ccccc3Cl)c2)cc1` [Compound 310] is higher in EC50: < 50 µM for the first, 50 to 200 µM for the second. The first is the more potent here.

First: Cn1cc(-c2c[nH]c(=O)c3[nH]ccc23)cn1 [Compound 612]
Second: Cn1cc(-c2cn(-c3ccc(OC(F)(F)F)cc3)c(=O)cc2O)cn1 [Compound 121]
The EC50 of the first is lower: < 50 µM for the first, > 200 µM for the second. The first is the more potent here.

`Cn1cc(-c2cn(-c3ccc(OC(F)(F)F)cc3)c(=O)cc2NCc2ccc(C#N)cc2)cn1` [Compound 526] and `Cn1cc(-c2cn(-c3ccc(OC(F)(F)F)cc3)c(=O)cc2Oc2ccccc2F)cn1` [Compound 408] cannot be ordered by EC50: > 200 µM for the first, > 200 µM for the second.

Compared with `Cn1cc(-c2cn(-c3ccc(OC(F)(F)F)cc3)c(=O)cc2N2CCCCC2)cn1` [Compound 127], `CN1CCC(Oc2cc(=O)n(-c3ccc(OC(F)(F)F)cc3)cc2-c2cnn(C)c2)CC1` [Compound 151] is lower in EC50: > 200 µM for the first, < 50 µM for the second.

Compared with `Cn1cc(-c2cn(-c3ccc(OC(F)(F)F)cc3)c(=O)c3c2CCN3C(=O)OC(C)(C)C)cn1` [Compound 690], `Cn1cc(-c2cn(-c3ccc(OC(F)(F)F)cc3)c(=O)c3c2NCCC3)cn1` [Compound 44] is higher in EC50: < 50 µM for the first, > 200 µM for the second. The first is the more potent here.

Compared with `C[C@H]1CCC(=O)N(c2ccccc2)C1` [Compound 83], `O=c1ccc(C2CCCC2)cn1-c1ccccc1` [Compound 64] is lower in EC50: > 200 µM for the first, 50 to 200 µM for the second.

`O=C(NCc1ccccc1)c1cc(=O)n(-c2ccc(OC(F)(F)F)cc2)cc1-c1ccc(F)cc1` [Compound 118] and `CCCNC(=O)c1cc(=O)n(-c2ccc(OC(F)(F)F)cc2)cc1-c1cnn(C)c1` [Compound 159] cannot be ordered by EC50: > 200 µM for the first, > 200 µM for the second.

First: Cc1cc(=O)n(-c2ccc(OC(F)(F)F)cc2)cc1-c1ccc2c(ccn2C)c1 [Compound 255]
Second: Cc1cc(=O)n(-c2ccc(OC(F)(F)F)cc2)cc1-c1ccc(Cl)c(Cl)c1 [Compound 197]
The EC50 of the first is higher: > 200 µM for the first, 50 to 200 µM for the second.

`N#Cc1ccc(-n2cc(-c3cn[nH]c3)c3nccnc3c2=O)cc1` [Compound 573] and `Cn1cc(-c2cn(-c3ccc(Cl)cc3)c(=O)c3nccnc23)cn1` [Compound 397] cannot be ordered by EC50: > 200 µM for the first, > 200 µM for the second.

First: CC(C)Oc1ccc(-n2cc(-c3cn[nH]c3)ccc2=O)cc1 [Compound 369]
Second: COc1cccc(-n2cc(-c3cn[nH]c3)ccc2=O)c1 [Compound 375]
The EC50 of the first is lower: 50 to 200 µM for the first, > 200 µM for the second. The first is the more potent here.

Compared with `CCOc1ccc(-n2cc(-c3cn[nH]c3)c3c(c2=O)CCCC3)c(C)c1` [Compound 36], `CCOc1ccc(-n2cc(-c3ccccc3)c(C)cc2=O)c(C)c1` [Compound 168] is higher in EC50: < 50 µM for the first, 50 to 200 µM for the second.

`COCCOc1ccc(-n2cc(-c3ccc(F)cc3)c(C)cc2=O)cc1` [Compound 23] and `Cc1cc(=O)n(-c2ccccc2)cc1-c1ccc(F)cc1` [Compound 176] fall in the same range of EC50: 50 to 200 µM for the first, 50 to 200 µM for the second.

Compared with `CCOc1ccc(-n2cc(-c3ccc4scnc4c3)c(C)cc2=O)c(C)c1` [Compound 552], `CCOc1ccc(-n2cc(-c3ccccc3)ccc2=O)c(C)c1` [Compound 298] is lower in EC50: > 200 µM for the first, 50 to 200 µM for the second. The second is the more potent here.

First: CN1CCN(CCOc2cc(=O)n(-c3ccc(OC(F)(F)F)cc3)cc2-c2ccc(F)cc2)CC1 [Compound 100]
Second: Cn1cc(-c2cn(-c3ccc(OC(F)(F)F)cc3)c(=O)cc2N2CCc3ccccc3C2)cn1 [Compound 129]
The EC50 of the first is lower: < 50 µM for the first, 50 to 200 µM for the second. The first is the more potent here.

`O=c1ccc(Br)cn1-c1ccc(Cl)cc1` [Compound 269] and `CC(=O)c1ccc(=O)n(-c2ccc(Cl)cc2)c1` [Compound 12] cannot be ordered by EC50: > 200 µM for the first, > 200 µM for the second.

`CC(=O)Nc1cccc(-n2cc(-c3cn[nH]c3)c(C)cc2=O)c1` [Compound 217] and `Cc1cc(=O)n(-c2ccc3c(c2)OCO3)cc1-c1ccc(F)cc1` [Compound 183] cannot be ordered by EC50: > 200 µM for the first, > 200 µM for the second.

First: Cn1cc(-c2cn(-c3ccc(OC(F)(F)F)cc3)c(=O)c3ncn(Cc4ccccc4)c23)cn1 [Compound 55]
Second: Cn1cc(-c2cn(-c3ccc(OC(F)(F)F)cc3)c(=O)cc2OC2CCS(=O)(=O)CC2)cn1 [Compound 149]
The EC50 of the first is higher: > 200 µM for the first, 50 to 200 µM for the second.

`Cc1cc(C)c(=O)n(-c2ccccc2)c1` [Compound 349] and `O=c1ccc(C(F)(F)F)cn1-c1ccccc1Cl` [Compound 281] cannot be ordered by EC50: > 200 µM for the first, > 200 µM for the second.

`Cc1cc(=O)n(-c2ccc(Cl)cc2)cc1-c1ccc2ocnc2c1` [Compound 422] and `CCn1c(=O)oc2c(-c3cn(-c4ccc(OC(F)(F)F)cc4)c(=O)cc3C)cccc21` [Compound 556] cannot be ordered by EC50: > 200 µM for the first, > 200 µM for the second.
